Converted amounts (≈) assume the structure as drawn. Where two headings read alike, the source gives them in different places.
Legend:
Assay type in all cases: cell-based
S. aureus ATCC 13709 = assay: MIC assay, S. aureus
Protocol: (§1) In vitro structure/activity relationship (“SAR”) tests were performed according to the following procedure: MIC assays were carried out in a 150 μL volume in duplicate in 96-well clear flat-bottom plates. The bacterial suspension from an overnight culture growth in the appropriate medium was added to a solution of test compound in 0.5% DMSO in water. Final bacterial inoculum was approximate 10^3-10^4 CFU/well. The percentage growth of the bacteria in the test wells relative to that observed for a control well containing no compound was determined by measuring absorbance at 595 nm (A595) after 20-24 h at 37° C. […] The bacterial strains used for the assays include S. aureus ATCC 13709, S. pyogenes ATCC 49399, E. faecalis ATCC 29212, E. faecium ATCC 6569, E. coli ATCC 25922, K. pneumoniae ATCC 13383, P. vulgaris ATCC 8427, P. aeruginosa ATCC 25416. The results of the in vitro SAR tests are in Tables 1-3.

S. pyogenes ATCC 49399 = assay: MIC assay, S. pyogenes; conditions: Streptococcus pyogenes, ATCC49399; read-out: MIC S. pyogenes ATCC 49399
Protocol: as §1

E. faecalis ATCC 29212 = assay: MIC assay, E. faecalis; conditions: Enterococcus faecalis, ATCC29212; read-out: MIC E. faecalis ATCC 29212
Protocol: as §1

E. faecium ATCC 6569 = assay: MIC assay, E. faecium; conditions: Enterococcus faecium, ATCC6569; read-out: MIC E. faecium ATCC 6569
Protocol: as §1

E. coli ATCC 25922 = assay: MIC assay, E. coli; conditions: Escherichia coli, ATCC25922; read-out: MIC E. coli ATCC 25922
Protocol: as §1

K. pneumoniae ATCC 13383 = assay: MIC assay, K. pneumoniae; conditions: Klebsiella pneumoniae, ATCC13383; read-out: MIC K. pneumoniae ATCC 13383
Protocol: as §1

P. vulgaris ATCC 8427 = assay: MIC assay, P. vulgaris; conditions: Proteus vulgaris, ATCC8427; read-out: MIC P. vulgaris ATCC 8427
Protocol: as §1

P. aeruginosa ATCC 25416 = assay: MIC assay, P. aeruginosa; conditions: Pseudomonas aeruginosa, ATCC25416; read-out: MIC P. aeruginosa ATCC 25416
Protocol: as §1

[1] = Table 1, thiourea/urea analogs, acetate salts
[2] = Table 2, benzylamino group modified analogs
[3] = Table 2, benzylamino group modified analogs, read-out: MIC S. aureus

Cc1ccc(NC(=S)NCCCNCc2cc(Br)cc(Br)c2)cc1 [8r]
MIC S. aureus (S. aureus ATCC 13709; [1]): 12 to 25 µM

O=C(NCCCNCc1cc(F)cc(F)c1)Nc1ccc(C(F)(F)F)cc1 [12n]
MIC S. aureus (S. aureus ATCC 13709; [2]): 50 to 100 µM

O=C(NCCCNCc1cccc(-c2ccccc2)c1)Nc1ccc(C(F)(F)F)cc1 [12c]
MIC S. aureus (S. aureus ATCC 13709; [2]): 6 to 12 µM

COc1cccc(NC(=S)NCCCNCc2cc(Br)cc(Br)c2)c1 [8j]
MIC S. aureus (S. aureus ATCC 13709; [1]): 25 to 50 µM

O=[N+]([O-])c1ccc(NC(=S)NCCCNCc2cc(Br)cc(Br)c2)cc1 [8q]
MIC S. aureus (S. aureus ATCC 13709; [1]): 12 to 25 µM

COc1ccccc1NC(=S)NCCCNCc1cc(Br)cc(Br)c1 [8c]
MIC (S. aureus ATCC 13709; Table 1, thiourea/urea analogs, acetate salts, read-out: MIC S. aureus): >100 µM

O=C(NCCCNCc1ccc(Cl)c(Cl)c1)Nc1ccc(C(F)(F)F)cc1 [12q]
MIC S. aureus (S. aureus ATCC 13709; [2]): 3 to 6 µM

COc1ccccc1NC(=O)NCCCNCc1cc(Br)cc(Br)c1 [9a]
MIC S. aureus (S. aureus ATCC 13709; [1]): 25 to 50 µM

CN(C)c1ccc(CNCCCNC(=O)Nc2ccc(C(F)(F)F)cc2)cc1 [12j]
MIC S. aureus (S. aureus ATCC 13709; [2]): 12 to 25 µM

CN(CCCNC(=O)Nc1ccc(C(F)(F)F)cc1)Cc1cc(Br)cc(Br)c1 [compound 13]
MIC (S. aureus ATCC 13709; [3]): >100 µM

O=C(NCCCNCc1cc(C(F)(F)F)cc(C(F)(F)F)c1)Nc1ccc(C(F)(F)F)cc1 [12o]
MIC S. aureus (S. aureus ATCC 13709; [2]): 50 to 100 µM

FC(F)(F)c1ccc(NC(=S)NCCCNCc2cc(Br)cc(Br)c2)cc1 [8p]
MIC S. aureus (S. aureus ATCC 13709; [1]): 6 to 12 µM

COc1ccc(NC(=S)NCCCNCc2cc(Br)cc(Br)c2)cc1 [8t]
MIC S. aureus (S. aureus ATCC 13709; [1]): 25 to 50 µM

CC(=O)NC[C@H]1CN(c2ccc(N3CCOCC3)c(F)c2)C(=O)O1 [Linezolide, reference compound]
MIC (S. aureus ATCC 13709; Staphylococcus aureus, ATCC13709, Table 1, thiourea/urea analogs, acetate salts, read-out: MIC S. aureus): 3 to 6 µM | MIC (S. aureus ATCC 13709; Staphylococcus aureus, ATCC13709, Table 4, read-out: MIC S. aureus ATCC 13709): 3 to 6 µM (≈ 1.01 to 2.02 µg/mL) | MIC S. aureus (S. aureus ATCC 13709; [2]): 3 to 6 µM | MIC (S. pyogenes ATCC 49399): 1.5 to 3 µM (≈ 0.506 to 1.01 µg/mL) | MIC (E. faecalis ATCC 29212): 3 to 6 µM (≈ 1.01 to 2.02 µg/mL) | MIC (E. faecium ATCC 6569): > 100 µM | MIC (E. coli ATCC 25922): > 100 µM | MIC (K. pneumoniae ATCC 13383): > 100 µM | MIC (P. vulgaris ATCC 8427): 12 to 25 µM (≈ 4.05 to 8.43 µg/mL) | MIC (P. aeruginosa ATCC 25416): > 100 µM

O=C(NCCCNCc1ccccc1OC(F)(F)F)Nc1ccc(C(F)(F)F)cc1 [12b]
MIC S. aureus (S. aureus ATCC 13709; [2]): 12 to 25 µM

COc1cc(CNCCCNC(=O)Nc2ccc(C(F)(F)F)cc2)cc(OC)c1 [12p]
MIC S. aureus (S. aureus ATCC 13709; [2]): 50 to 100 µM

N#Cc1ccc(NC(=S)NCCCNCc2cc(Br)cc(Br)c2)cc1 [8s]
MIC S. aureus (S. aureus ATCC 13709; [1]): 25 to 50 µM

S=C(NCCCNCc1cc(Br)cc(Br)c1)Nc1cccc(Cl)c1 [8g]
MIC S. aureus (S. aureus ATCC 13709; [1]): 6 to 12 µM

O=C(NCCCNCc1cc(Br)cc(Br)c1O)Nc1ccc(C(F)(F)F)cc1 [12r]
MIC (S. aureus ATCC 13709; [3]): >100 µM

S=C(NCCCNCc1cc(Br)cc(Br)c1)Nc1ccc(Cl)c(Cl)c1 [8k, 1-[3-(3,5-Dibromo-benzylamino)-propyl]-3-(3,4-dichloro-phenyl)-thiourea]
MIC (S. aureus ATCC 13709; Staphylococcus aureus, ATCC13709, read-out: MIC S. aureus): 3 to 6 µM (≈ 1.58 to 3.16 µg/mL)

S=C(NCCCNCc1cc(Br)cc(Br)c1)Nc1ccc(Cl)cc1 [8m]
MIC S. aureus (S. aureus ATCC 13709; [1]): 6 to 12 µM

O=C(NCCCNCc1cc(Br)cc(Br)c1)Nc1ccc(Cl)cc1 [9c]
MIC S. aureus (S. aureus ATCC 13709; [1]): 6 to 12 µM

COc1cc(Br)cc(CNCCCNC(=O)Nc2ccc(C(F)(F)F)cc2)c1O [12t]
MIC S. aureus (S. aureus ATCC 13709; [2]): 12 to 25 µM

O=C(NCCCNCc1cc(Br)cc(Br)c1)Nc1ccc(OC(F)(F)F)cc1 [9g]
MIC S. aureus (S. aureus ATCC 13709; [1]): 6 to 12 µM

From US20060030603A1, “Novel aryl urea analogs and use thereof as antibacterial agents” (priority 2004, published 2006)
